Assay type in all cases: cell-based
The subject of data set [1] is filaggrin production in HaCaT cells. The data set is described as follows: Production of moisturizing factor filaggrin (FLG), ELISA. The note with it: 24 hours, cell lysate, FIG. 3 and FIG. 4. The protocol: (§1) HaCaT cells, which are skin keratinocytes, were provided by Cell Line Service GmbH (Germany). The cells were cultured in 5% CO2 incubator at 37° C. using Dulbecco's modified Eagle's medium (DMEM) containing 1% penicillin-streptomycin and 10% fetal bovine serum (FBS). Subculturing was performed with 2-3 day intervals.
HaCaT cells were seeded at 1.0×10^5 cells/well in a 24-well plate and cultured for 24 hours under the condition of 37° C. and 5% CO2. After the cultured cell medium was replaced with serum-free DMEM, a sample was treated at different concentrations and the cells were cultured for 24 hours. Afterwards, the cells of each test group were lysed and proteins were collected. Then, the amount of filaggrin produced in the culture medium extract was measured. The measurement of filaggrin production was performed using the Filaggrin ELISA kit (Cusabio Biotechnology Co., Ltd) according to the method provided by the manufacturer. The result of measuring the amount of filaggrin produced depending on the quercetin treatment is shown in FIG. 3, and the result of measuring the amount of filaggrin produced depending on the treatment with the extracts of the example and comparative example is shown in FIG. 4.
(In general: An ELISA detects its analyte on a solid surface through an enzyme-linked reagent.)

Data set [2] has as its system hyaluronic acid production in HaCaT cells. The data set is described as follows: Production of moisturizing factor hyaluronic acid (HA), ELISA. The note with it: 24 hours, supernatant, FIG. 1 and FIG. 2.
Protocol: HaCaT cells, which are skin keratinocytes, were provided by Cell Line Service GmbH (Germany). The cells were cultured in 5% CO2 incubator at 37° C. using Dulbecco's modified Eagle's medium (DMEM) containing 1% penicillin-streptomycin and 10% fetal bovine serum (FBS). Subculturing was performed with 2-3 day intervals. HaCaT cells were seeded at 1.0×10^5 cells/well in a 24-well plate and cultured for 24 hours under the condition of 37° C. and 5% CO2. After the cultured cell medium was replaced with serum-free DMEM, a sample was treated at different concentrations and the cells were cultured for 24 hours. Afterwards, the supernatant from each test group was collected and the amount of hyaluronic acid (HA) produced in the medium was measured. A control group was treated with N-acetylglucosamine at a concentration of 10 mM. The measurement of hyaluronic acid production was performed using the Hyaluronan Quantikine ELISA kit (R&D Systems) according to the method provided by the manufacturer.
Data set [3] relates to HaCaT cells. The data set is described as follows: Evaluation of cytotoxicity, EZ-Cytox assay. Conditions: for HaCaT cell growth rate: versus untreated group 100%. The protocol: as §1
The EZ-cytox assay is a representative method for measuring cell viability that utilizes the principle that a water-soluble tetrazolium salt (WST) reacts with the dehydrogenase of living cells to produce an orange-colored, water-soluble formazan.
To examine cytotoxicity, HaCaT cells were seeded at 1.0×10^4 cells/well in a 96-well plate using DMEM medium containing 10% FBS, and cultured under the condition of 37° C. and 5% CO2 for 24 hours. After exchanging the medium with serum-free DMEM, the cultured cells were treated with a sample to be evaluated. After that, EZ-cytox was added to each well and reacted under the condition of 37° C. and 5% CO2 for 30 minutes, and then absorbance was measured at 450 nm using a microplate reader. The average absorbance value for each sample group was calculated, and this value was compared with the absorbance value of the control group to evaluate cell viability.

Take `O=c1c(O)c(-c2ccc(O)c(O)c2)oc2cc(O)cc(O)c12` [Quercetin, quercetin]: the Production of filaggrin entry in data set [1] was “promoted the production of the moisturizing factor filaggrin”. The “Production of hyaluronic acid” value in data set [2] is “promoted the production of the moisturizing factor hyaluronic acid”. In addition, the “HaCaT cell growth rate” value stood at 104.3 ± 1.3% in data set [3] (25 μM), 105.9 ± 1.0% in data set [3] (50 μM), 109.4 ± 2.1% in data set [3] (100 μM) and 92.8 ± 2.8% in data set [3] (200 μM). Moreover, the “Cytotoxicity for the skin keratinocytes” value in data set [3] (HaCaT cells, tested concentrations of Table 2) was “none of the example, comparative example or quercetin exhibited cytotoxicity”.

Source of the values: US20260216053A1, “COSMETIC COMPOSITION CONTAINING HOUTTUYNIA CORDATA FERMENTATION EXTRACT” (DAEBONG LS CO., LTD., priority 2022, published 2026).
